ChEMBL document CHEMBL5360558, “Molecular design, synthesis and anticancer activity of new thiopyrano[2,3-d]thiazoles based on 5-hydroxy-1,4-naphthoquinone (juglone)” (Eur J Med Chem, 2023)
Active and inactive are the calls of the source. The calls are words filed in the database; no cut-off is given here.

How the values were obtained:
[1] = Acute toxicity in C57BL/6 mouse assessed as ratio of liver weight to body weight at 20 mg/kg,ip administration and observed after 22 days (reference value: 5.22 +/- 0.42); type: organism-based; conditions: in vivo, 528 h, time 22 day
IGROV-1 [2] = assay: Growth inhibition of human IGROV-1 cells incubated for 48 hrs by sulforhodamine B spectrophotometric assay; type: functional
MOLT-4 = assay: Growth inhibition of human MOLT-4 cells incubated for 48 hrs by sulforhodamine B spectrophotometric assay; type: functional
KB 3-1 = assay: Antiproliferative activity against human KB 3-1 cells assessed as decrease in cell growth at 500 nM incubated for 72 hrs by crystal violet staining based assay; type: functional
Jurkat = assay: Induction of apoptosis in human Jurkat cells assessed as necrotic cells at 25 uM by DNA laddering assay; type: functional, cell-based
OVCAR-3 = assay: Growth inhibition against human OVCAR-3 cells assessed as total growth inhibitory concentration incubated for 48 hrs by sulforhodamine B spectrophotometric assay; type: functional
ACHN = assay: Growth inhibition against human ACHN cells assessed as total growth inhibitory concentration incubated for 48 hrs by sulforhodamine B spectrophotometric assay; type: functional
A498 = assay: Growth inhibition against human A498 cells assessed as total growth inhibitory concentration incubated for 48 hrs by sulforhodamine B spectrophotometric assay; type: functional
[3] = Antileukemic activity against human CLL cell assessed as cell growth inhibition incubated for 72 hrs by MTT assay; type: functional, cell-based
[4] = GSH reactivity of compound at pH 7.4 phosphate buffer assessed as GSH-adduct formation at 1 mM incubated for 1 hr in presence of sodium borohydride by spectrophotometric analysis; type: physicochemical; conditions: pH 7.4, 1 h, 1000 µM
MCF7 = assay: Growth inhibition against human MCF7 cells assessed as total growth inhibitory concentration incubated for 48 hrs by sulforhodamine B spectrophotometric assay; type: functional
NCI-H460 [5] = assay: Growth inhibition against human NCI-H460 cells assessed as total growth inhibitory concentration incubated for 48 hrs by sulforhodamine B spectrophotometric assay; type: functional
HOP-92 = assay: Growth inhibition against human HOP-92 cells assessed as lethal concentration incubated for 48 hrs by sulforhodamine B spectrophotometric assay; type: functional; conditions: read-out: LC50 (the source's name)
CCRF-CEM = assay: Growth inhibition against human CCRF-CEM cells assessed as lethal concentration incubated for 48 hrs by sulforhodamine B spectrophotometric assay; type: functional; conditions: read-out: LC50 (the source's name)
NCI-H522 = assay: Growth inhibition against human NCI-H522 cells assessed as lethal concentration incubated for 48 hrs by sulforhodamine B spectrophotometric assay; type: functional; conditions: read-out: LC50 (the source's name)
OVCAR-5 = assay: Growth inhibition against human OVCAR-5 cells assessed as total growth inhibitory concentration incubated for 48 hrs by sulforhodamine B spectrophotometric assay; type: functional
OVCAR-8 = assay: Growth inhibition against human OVCAR-8 cells assessed as total growth inhibitory concentration incubated for 48 hrs by sulforhodamine B spectrophotometric assay; type: functional
LOX IMVI = assay: Growth inhibition against human LOX IMVI cells assessed as total growth inhibitory concentration incubated for 48 hrs by sulforhodamine B spectrophotometric assay; type: functional
NCI-H226 = assay: Growth inhibition against human NCI-H226 cells assessed as total growth inhibitory concentration incubated for 48 hrs by sulforhodamine B spectrophotometric assay; type: functional
SNB-19 = assay: Growth inhibition against human SNB-19 cells assessed as total growth inhibitory concentration incubated for 48 hrs by sulforhodamine B spectrophotometric assay; type: functional
NCI-H460 [6] = assay: Growth inhibition against human NCI-H460 cells assessed as lethal concentration incubated for 48 hrs by sulforhodamine B spectrophotometric assay; type: functional; conditions: read-out: LC50 (the source's name)
HCT-15 = assay: Growth inhibition against human HCT-15 cells assessed as lethal concentration incubated for 48 hrs by sulforhodamine B spectrophotometric assay; type: functional; conditions: read-out: LC50 (the source's name)
UACC-257 = assay: Growth inhibition of human UACC-257 cells incubated for 48 hrs by sulforhodamine B spectrophotometric assay; type: functional
Hs-578T = assay: Growth inhibition of human Hs-578T cells incubated for 48 hrs by sulforhodamine B spectrophotometric assay; type: functional
OVCAR-4 = assay: Growth inhibition against human OVCAR-4 cells assessed as lethal concentration incubated for 48 hrs by sulforhodamine B spectrophotometric assay; type: functional; conditions: read-out: LC50 (the source's name)
IGROV-1 [7] = assay: Growth inhibition against human IGROV-1 cells assessed as total growth inhibitory concentration incubated for 48 hrs by sulforhodamine B spectrophotometric assay; type: functional

O=C1C2=C(C(=O)c3c(O)cccc31)C(c1ccco1)c1sc(=O)[nH]c1S2 (stereo unspecified)
Ratio [1]: 4.54
GI50 (IGROV-1 [2]): 2.51 µM
GI50 (MOLT-4): 2.71 µM
Activity (KB 3-1): Active
Activity (Jurkat): Active
TGI (OVCAR-3): 14 µM
TGI (ACHN): 16.1 µM
TGI (A498): 9.69 µM
IC50 [3]: > 50 µM
Activity [4]: Active
TGI (MCF7): 3.34 µM
TGI (NCI-H460 [5]): 3.48 µM
CC50 (HOP-92): 32.5 µM
CC50 (CCRF-CEM): > 100 µM
CC50 (NCI-H522): 26.4 µM
TGI (OVCAR-5): 4.58 µM
TGI (OVCAR-8): 8.97 µM
TGI (LOX IMVI): 7.55 µM
TGI (NCI-H226): 5.46 µM
TGI (SNB-19): 7.33 µM
CC50 (NCI-H460 [6]): 7.84 µM
CC50 (HCT-15): 8.59 µM
GI50 (UACC-257): 1.57 µM
GI50 (Hs-578T): 2.2 µM
CC50 (OVCAR-4): 8.71 µM
TGI (IGROV-1 [7]): 6.14 µM
